Test results reported in PubChem BioAssay (NCI).
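In this assay, cells in 96-well plates receive the compound at five concentrations for 48 hours. Endpoints are linearly interpolated between the surrounding concentrations. TGI marks complete inhibition of growth.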

Tests used:
Assay in all cases: NCI-60 cell line screen, 48 h
[1] = test system: SF-268 CNS
[2] = test system: T-47D breast
[3] = test system: IGROV1 ovarian
[4] = test system: OVCAR-8 ovarian
[5] = test system: SW-620 colon
[6] = test system: MDA-MB-435
[7] = test system: NCI-H522 lung
[8] = test system: MCF7 breast
[9] = test system: CCRF-CEM leukemia
[10] = test system: UACC-257 melanoma
[11] = test system: HL-60(TB) leukemia
[12] = test system: A498 renal
[13] = test system: SF-539 CNS
[14] = test system: CAKI-1 renal
[15] = test system: MDA-N
[16] = test system: ACHN renal
[17] = test system: RXF 393 renal
[18] = test system: UO-31 renal
[19] = test system: OVCAR-4 ovarian
[20] = test system: HOP-92 NSCLC

Measured: TGI

NCC(=O)Nc1ccc(S(=O)(=O)O)c2cc(S(=O)(=O)O)cc(S(=O)(=O)O)c12
> 100 µM: [1] | [2] | [3] | [4] | [5] | [6] | [7] | [8] | [9] | [10] | [11] | [12] | [13] | [14] | [15] | [16] | [17] | [18] | [19] | [20]
